From US8574831B2, “Mutational profiles in HIV-1 reverse transcriptase correlated with phenotypic drug resistance” (Virco N.V., priority 2000, dated 2013)

Tested on: HIV with mutations in the HIV protease sequence
Experiment: Phenotypic fold resistance to protease inhibitors, protease mutations 84A/84L/84C/54M/54L/54V in a background (Examples 8-13)
Assay type: cell-based, HIV-1
Method in brief: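 Fold-resistance equals chimeric-virus IC50 divided by IC50 of a parallel wild-type reference HIV-1 strain. Chimeras come from PCR-amplified PR/RT genes recombined into PR/RT-deleted HXB2 proviral DNA inside CD4+ T cells, then cultured with graded drug concentrations.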

SMILES: CC(C)CN(C[C@@H](O)[C@H](Cc1ccccc1)NC(=O)O[C@H]1CCOC1)S(=O)(=O)c1ccc(N)cc1 [Amprenavir, amprenavir]
- Fold change in IC50 (Table 12, V055199, genotype 10I + 33F + 54M + 90M): 38.7 fold
- Fold change in IC50 (Table 13, V19263, genotype 77I): 0.6 fold
- Fold change in IC50 (Table 13, V20160, genotype WT): 1.0 fold
- Fold change in IC50 (Table 13, V021667, genotype 10I): 1.1 fold
- Fold change in IC50 (Table 13, V030496, genotype 10I + 77I): 0.5 fold
- Fold change in IC50 (Table 13, V048868, genotype 10I + 54L + 71V + 77I + 90M): 4.1 fold
- Fold change in IC50 (Table 13, V048874, genotype 10I + 33F + 54L + 71V + 77I + 90M): 32.1 fold
- Fold change in IC50 (Table 13, V048875, genotype 10I + 33F + 54L + 71V + 77I + 90M): 24.6 fold
- Fold change in IC50 (Table 13, V048877, genotype 10I + 33F + 77I + 90M): 7.9 fold
- Fold change in IC50 (Table 13, V048880, genotype 10I + 33F + 77I + 90M): 3.8 fold
- Fold change in IC50 (Table 13, V052940, genotype 71V): 0.3 fold
- Fold change in IC50 (Table 13, V052942, genotype 10I + 71V): 0.5 fold
- Fold change in IC50 (Table 13, V052943, genotype 10I + 90M): 0.4 fold
- Fold change in IC50 (Table 13, V052944, genotype 10I + 90M): 0.7 fold
- Fold change in IC50 (Table 13, V052945, genotype 77I + 90M): 0.3 fold
- Fold change in IC50 (Table 13, V052946, genotype 71V + 90M): 0.5 fold
- Fold change in IC50 (Table 13, V052947, genotype 10I + 77I + 90M): 1.2 fold
- Fold change in IC50 (Table 13, V052948, genotype 10I + 71V + 90M): 2.0 fold
- Fold change in IC50 (Table 13, V052949, genotype 10I + 71V + 77I + 90M): 0.6 fold
- Fold change in IC50 (Table 13, V052950, genotype 33F): 0.7 fold
- Fold change in IC50 (Table 13, V052951, genotype 33F + 77I): 0.3 fold
- Fold change in IC50 (Table 13, V052953, genotype 10I + 33F + 77I): 1.5 fold
- Fold change in IC50 (Table 13, V052954, genotype 33F + 77I + 90M): 2.1 fold
- Fold change in IC50 (Table 13, V052955, genotype 33F + 71V + 90M): 2.7 fold
- Fold change in IC50 (Table 13, V052968, genotype 10L/I + 33F/L + 54L + 77I): 2.9 fold
- Fold change in IC50 (Table 13, V052969, genotype 10I + 33F + 54L + 90M): 10.4 fold
- Fold change in IC50 (Table 13, V052970, genotype 54L): 0.8 fold
- Fold change in IC50 (Table 13, V052971, genotype 10I + 54L): 2.6 fold
- Fold change in IC50 (Table 13, V052972, genotype 54L + 77I): 1.1 fold
- Fold change in IC50 (Table 13, V052973, genotype 10I + 54L + 77I): 2.1 fold
- Fold change in IC50 (Table 13, V052974, genotype 10I + 54L + 90M): 1.2 fold
- Fold change in IC50 (Table 13, V052975, genotype 10I + 54L + 71V + 90M): 6.2 fold
- Fold change in IC50 (Table 13, V052976, genotype 10I + 54L + 71V + 77I + 90M): 2.0 fold
- Fold change in IC50 (Table 13, V053832, genotype 10I + 33F): 0.6 fold
- Fold change in IC50 (Table 13, V053854, genotype 54L + 71V): 5.0 fold
- Fold change in IC50 (Virco ID 214846, genotype 10I + 33F + 54V + 71V + 77I + 90M, vs mean IC50 of wild type laboratory HIV strain): 4.2 fold
- Fold change in IC50 (Virco ID V021667, genotype 10I, vs mean IC50 of wild type laboratory HIV strain): 1.1 fold
- Fold change in IC50 (Virco ID V030496, genotype 10I + 77I, vs mean IC50 of wild type laboratory HIV strain): 0.5 fold
- Fold change in IC50 (Virco ID V048876, genotype 33F + 54V + 77I + 90M, vs mean IC50 of wild type laboratory HIV strain): 1.1 fold
- Fold change in IC50 (Virco ID V048877, genotype 10I + 33F + 77I + 90M, vs mean IC50 of wild type laboratory HIV strain): 7.9 fold
- Fold change in IC50 (Virco ID V048880, genotype 10I + 33F + 77I + 90M, vs mean IC50 of wild type laboratory HIV strain): 3.8 fold
- Fold change in IC50 (Virco ID V052940, genotype 71V, vs mean IC50 of wild type laboratory HIV strain): 0.3 fold
- Fold change in IC50 (Virco ID V052942, genotype 10I + 71V, vs mean IC50 of wild type laboratory HIV strain): 0.5 fold
- Fold change in IC50 (Virco ID V052943, genotype 10I + 90M, vs mean IC50 of wild type laboratory HIV strain): 0.4 fold
- Fold change in IC50 (Virco ID V052944, genotype 10I + 90M, vs mean IC50 of wild type laboratory HIV strain): 0.7 fold
- Fold change in IC50 (Virco ID V052946, genotype 71V + 90M, vs mean IC50 of wild type laboratory HIV strain): 0.5 fold
- Fold change in IC50 (Virco ID V052947, genotype 10I + 77I + 90M, vs mean IC50 of wild type laboratory HIV strain): 1.2 fold
- Fold change in IC50 (Virco ID V052948, genotype 10I + 71V + 90M, vs mean IC50 of wild type laboratory HIV strain): 2.0 fold
- Fold change in IC50 (Virco ID V052949, genotype 10I + 71V + 77I + 90M, vs mean IC50 of wild type laboratory HIV strain): 0.6 fold
- Fold change in IC50 (Virco ID V052950, genotype 33F, vs mean IC50 of wild type laboratory HIV strain): 0.7 fold
- Fold change in IC50 (Virco ID V052951, genotype 33F + 77I, vs mean IC50 of wild type laboratory HIV strain): 0.3 fold
- Fold change in IC50 (Virco ID V052953, genotype 10I + 33F + 77I, vs mean IC50 of wild type laboratory HIV strain): 1.5 fold
- Fold change in IC50 (Virco ID V052954, genotype 33F + 77I + 90M, vs mean IC50 of wild type laboratory HIV strain): 2.1 fold
- Fold change in IC50 (Virco ID V052955, genotype 33F + 71V + 90M, vs mean IC50 of wild type laboratory HIV strain): 2.7 fold
- Fold change in IC50 (Virco ID V052957, genotype 10I + 33F + 54V + 90M, vs mean IC50 of wild type laboratory HIV strain): 5.2 fold
- Fold change in IC50 (Virco ID V052958, genotype 10I + 33F + 54V + 77I + 90M, vs mean IC50 of wild type laboratory HIV strain): 7.8 fold
- Fold change in IC50 (Virco ID V052959, genotype 10I + 33F + 54V + 77I + 90M, vs mean IC50 of wild type laboratory HIV strain): 7.0 fold
- Fold change in IC50 (Virco ID V052960, genotype 10I + 33F + 54V + 71V + 90M, vs mean IC50 of wild type laboratory HIV strain): 6.4 fold
- Fold change in IC50 (Virco ID V052961, genotype 54V, vs mean IC50 of wild type laboratory HIV strain): 0.5 fold
- Fold change in IC50 (Virco ID V052962, genotype 10I + 54V, vs mean IC50 of wild type laboratory HIV strain): 0.5 fold
- Fold change in IC50 (Virco ID V052963, genotype 54V + 77I + 90M, vs mean IC50 of wild type laboratory HIV strain): 0.5 fold
- Fold change in IC50 (Virco ID V052964, genotype 54V + 71V + 90M, vs mean IC50 of wild type laboratory HIV strain): 0.3 fold
- Fold change in IC50 (Virco ID V052965, genotype 10I + 54V + 77I + 90M, vs mean IC50 of wild type laboratory HIV strain): 0.7 fold
- Fold change in IC50 (Virco ID V052966, genotype 10I + 54V + 71V + 90M, vs mean IC50 of wild type laboratory HIV strain): 1.5 fold
- Fold change in IC50 (Virco ID V052967, genotype 10I + 54V + 71V + 77I + 90M, vs mean IC50 of wild type laboratory HIV strain): 0.4 fold
- Fold change in IC50 (Virco ID V053358, genotype 33F + 54V + 77I + 90M, vs mean IC50 of wild type laboratory HIV strain): 1.0 fold
- Fold change in IC50 (Virco ID V053831, genotype 33F + 54V, vs mean IC50 of wild type laboratory HIV strain): 7.5 fold
- Fold change in IC50 (Virco ID V053832, genotype 10I + 33F, vs mean IC50 of wild type laboratory HIV strain): 0.6 fold
